Test results taken from patent publication US20250289812A1, “COMPOUND FOR TREATING THROMBOTIC DISEASES” (SHANGHAI INSTITUTE OF MATERIA MEDICA, CHINESE ACADEMY OF …, priority 2020, published 2025).

Tests used:
[1] = target: Src kinase SH3 domain protein (Homo sapiens (Human), UniProt P12931); assay: Surface plasmon resonance (SPR) determination of dissociation constants with SH3 protein; format: binding; settings: SH3 protein coupled to CM5 chip
Protocol: 1. Experimental method: Surface plasmon resonance test was carried out on BIACORE T200 instrument (GE Company). Fresh purified grade Src kinase SH3 domain protein (concentration 2 mg/ml) was diluted to 0.1 mg/ml with 10 mM CH3COONa (pH 4.2) and then SH3 protein was coupled to the CM5 chip by standard amino coupling methods. The compounds of the invention were diluted in a gradient using a buffer solution (20 mM Tris-HCl, PH 8.0, 100 mM NaCl) for 60 seconds and dissociated for 120 seconds at a flow rate of […], respectively. The changes in response values over time were recorded and analyzed by the BIA Evaluation Software (GE Healthcare) program to obtain the dissociation constants KD for the different compounds with SH3 protein.
2. Experimental results and conclusions: The dissociation constants KD of different compounds and SH3 protein were described in Table 2, and the surface plasmon resonance (SPR) experimental results of some compounds were shown in FIG. 1.

[2] = tested on: platelets on solid phase fibrinogen; assay: Effect of compound on platelet stretching on solid phase fibrinogen; format: cell-based; settings: 1 h, washed platelets, incubated 60 min at 37° C., read-out: Concentration range for compounds that inhibit platelet stretching on fibrinogen
Protocol: 1. Experimental method: Firstly, 50 μl fibrinogen (0.1M, diluted with pH 8.3 sodium bicarbonate, 20 μg/ml) was added to 96-well plate, and coated overnight at 4° C. After being washed by PBS for 3 times in the morning, sealed with bovine serum albumin (20 mg/ml) at 37° C. for 60 min, then 100 μl of washed platelet suspension was taken, and added into compounds in each group to make the final concentration 250 μM, and incubated at 37° C. for 60 min. 50 μl of incubated platelets were added to 96-well plate, adhered in a temperature box at 37° C. for 60 min, unadhered platelets were removed by PBS washing for 3 times, and adhered platelets were stably fixed with 4% paraformaldehyde, and washed with PBS for 3 times. Then the platelet membrane was perforated with 0.5% Triton X-100, and then the platelet was stained with 0.5 μg/ml phalloidin-rhodamine for 60 min at 37° C. and washed 3 times (10 min each) with PBS.
2. Experimental results and conclusions: The concentration of different compounds on platelet stretching on fibrinogen was shown in Table 3, and the inhibitory effect of some compounds on platelet stretching was shown in FIG. 2.

Sequence of Src kinase SH3 domain protein (P12931 whole entry, looked up, the tested form may be a part): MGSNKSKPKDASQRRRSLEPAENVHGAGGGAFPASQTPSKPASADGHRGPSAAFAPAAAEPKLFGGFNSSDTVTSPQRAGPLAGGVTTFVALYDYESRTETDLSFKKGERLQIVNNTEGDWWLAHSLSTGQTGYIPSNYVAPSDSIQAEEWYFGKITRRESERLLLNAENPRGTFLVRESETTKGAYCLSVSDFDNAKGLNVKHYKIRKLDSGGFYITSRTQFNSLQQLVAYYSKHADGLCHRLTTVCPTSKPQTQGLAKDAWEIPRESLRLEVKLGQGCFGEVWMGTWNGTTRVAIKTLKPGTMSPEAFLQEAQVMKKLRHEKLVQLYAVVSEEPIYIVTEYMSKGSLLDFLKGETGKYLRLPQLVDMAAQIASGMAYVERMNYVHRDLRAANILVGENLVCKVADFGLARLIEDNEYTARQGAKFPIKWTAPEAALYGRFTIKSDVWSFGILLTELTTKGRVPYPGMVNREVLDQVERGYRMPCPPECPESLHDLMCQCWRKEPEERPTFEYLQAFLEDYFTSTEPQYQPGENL

Kd [1]	Structure (SMILES)	minimal effective concentration [2]
< 1000 nM	CCOC(=O)c1c(CNC(=N)N)n(C)c2ccc(OC)nc12 [SYY-C001]	10 to 100 µM
1000 to 10000 nM	CCOC(=O)c1c(CNC(=N)N)n(C)c2ncccc12 [SYY-C002]	100 to 250 µM
< 1000 nM	CCOC(=O)c1c(CNC(=N)N)n(C)c2ncc(OC)cc12 [SYY-C003]	10 to 100 µM
1000 to 10000 nM	COc1ccc2c(n1)c(C#N)c(CNC(=N)N)n2C [SYY-C004]	100 to 250 µM
1000 to 10000 nM	COc1ccc2c(n1)c(C(N)=O)c(CNC(=N)N)n2C [SYY-C005]	100 to 250 µM
< 1000 nM	CCOC(=O)c1c(CNC(=N)N)n(C)c2ccc(O)nc12 [SYY-C006]	10 to 100 µM
< 1000 nM	CCOC(=O)c1c(CNC(=N)N)n(C)c2ccc(OC3CCCC3)nc12 [SYY-C007]	10 to 100 µM
10000 to 100000 nM	CCOC(=O)c1c(CNC(=N)N)n(C)c2cc(Br)c(OC3CCCC3)nc12 [SYY-C008]	100 to 250 µM
< 1000 nM	CCOC(=O)c1c(CNC(=N)N)n(C)c2ncc(O)cc12 [SYY-C009]	10 to 100 µM
10000 to 100000 nM	CCOC(=O)c1c(CNC(=N)N)n(C)c2ncc(OC3CCCC3)cc12 [SYY-C010]	10 to 100 µM
< 1000 nM	CCOC(=O)c1c(CNC(=N)N)n(C)c2cc(Br)cnc12 [SYY-C014]	10 to 100 µM
< 1000 nM	CCOC(=O)c1c(CNC(=N)N)n(C)c2cc(Br)ccc12 [SYY-C015]	10 to 100 µM
10000 to 100000 nM	CCOC(=O)c1c(CNC(=N)N)n(C)c2ccccc12 [SYY-C016]	10 to 100 µM
< 1000 nM	CCOC(=O)c1c(CNC(=N)N)n(C)c2ccc(Br)cc12 [SYY-C017]	10 to 100 µM
1000 to 10000 nM	CCOC(=O)c1c(CNC(=N)N)n(C)c2nc(Cl)ccc12 [SYY-C020]	100 to 250 µM
1000 to 10000 nM	CCOC(=O)c1c(CNC(=N)N)n(C)c2cc(Br)ncc12 [SYY-C022]	100 to 250 µM
10000 to 100000 nM	CCOC(=O)c1c(CNC(=N)N)n(C)c2cc(-c3ccccc3)ccc12 [SYY-C023]	10 to 100 µM
< 1000 nM	CCOC(=O)c1c(CNC(=N)N)n(C)c2cc(C3=CCCC3)ccc12 [SYY-C024]	10 to 100 µM
< 1000 nM	CCOC(=O)c1c(CNC(=N)N)n(C)c2cc(C3CCCC3)ccc12 [SYY-C025]	10 to 100 µM
1000 to 10000 nM	CCOC(=O)c1c(CNC(=N)N)n(C)c2cccnc12 [SYY-C026]	100 to 250 µM
< 1000 nM	CCOC(=O)c1c(CNC(=N)N)n(C)c2ccc(-c3ccccc3)cc12 [SYY-C028]	10 to 100 µM
< 1000 nM	CCOC(=O)c1c(CNC(=N)N)n(C)c2c1ccc1ccccc12 [SYY-C029]	10 to 100 µM
10000 to 100000 nM	CCOC(=O)c1c(CNC(=N)N)n(-c2ccccc2)c2ccccc12 [SYY-C030]	100 to 250 µM
< 1000 nM	CCOC(=O)c1c(CSC(=N)N)n(-c2ccccc2)c2ccccc12 [SYY-C031]	10 to 100 µM
< 1000 nM	CCNC(=N)NCc1c(C(=O)OCC)c2nc(OC)ccc2n1C [SYY-C032]	10 to 100 µM
1000 to 10000 nM	CCOC(=O)c1c(CNC(=N)N)n(C)c2ccncc12 [SYY-C034]	100 to 250 µM

Kd [1]	Structure (SMILES)	minimal effective concentration [2]
1000 to 10000 nM	CCOC(=O)c1c(CNC(=N)N)n(C)c2cnccc12 [SYY-C035]	100 to 250 µM
	COc1cnc2c(c1)c(C(N)=O)c(CNC(=N)N)n2C [SYY-C036]	10 to 100 µM
1000 to 10000 nM	CCOC(=O)c1c(CNC(=N)N)n(C)c2ccc(C3=CCCC3)cc12 [SYY-C037]	100 to 250 µM
< 1000 nM	CCOC(=O)c1c(CNC(=N)N)n(C)c2ccc(C3CCCC3)cc12 [SYY-C039]	10 to 100 µM
< 1000 nM	CCOC(=O)c1c(CNC(=N)N)n(C)c2cc(-c3cccc4ccccc34)ccc12 [SYY-C040]	10 to 100 µM
10000 to 100000 nM	CCOC(=O)c1c(CNC(=N)N)n(C)c2cc(-c3ccc4ccccc4c3)ccc12 [SYY-C041]	100 to 250 µM
1000 to 10000 nM	CCOC(=O)c1c(CSC(=N)N)n(C)c2cc(-c3cccc4ccccc34)ccc12 [SYY-C042]	10 to 100 µM
1000 to 10000 nM	CCOC(=O)c1c(CSC(=N)N)n(C)c2cc(-c3ccc4ccccc4c3)ccc12 [SYY-C043]	100 to 250 µM
< 1000 nM	CCOC(=O)c1c(CSC(=N)N)n(C)c2cc(Cc3ccccc3)ccc12 [SYY-C045]	10 to 100 µM
10000 to 100000 nM	CCOC(=O)c1c(CNC(=N)N)n(C)c2cc(C3=CCCCCC3)ccc12 [SYY-C046]	100 to 250 µM
< 1000 nM	CCOC(=O)c1c(CNC(=N)N)n(C)c2cc(C3CCCCCC3)ccc12 [SYY-C047]	10 to 100 µM
10000 to 100000 nM	CCOC(=O)c1c(CNC(=N)N)n(C)c2cc(C3=CCCCC3)ccc12 [SYY-C048]	10 to 100 µM
< 1000 nM	CCOC(=O)c1c(CNC(=N)N)n(C)c2cc(C3CCCCC3)ccc12 [SYY-C049]	10 to 100 µM
< 1000 nM	CCOC(=O)c1c(CSC(=N)N)n(C)c2cc(C3CCCCC3)ccc12 [SYY-C050]	10 to 100 µM
1000 to 10000 nM	CCOC(=O)c1c(CSC(=N)N)n(C)c2cc(C3=CCCCC3)ccc12 [SYY-C051]	100 to 250 µM
1000 to 10000 nM	CCOC(=O)c1c(CSC(=N)N)n(C)c2cc(C3=CCCCCC3)ccc12 [SYY-C052]	100 to 250 µM
< 1000 nM	CCOC(=O)c1c(CSC(=N)N)n(C)c2cc(C3CCCCCC3)ccc12 [SYY-C053]	10 to 100 µM
< 1000 nM	CCOC(=O)c1c(CNC(=N)N)n(C)c2cc(OC3CCCC3)ccc12 [SYY-C054]	10 to 100 µM
< 1000 nM	CCOC(=O)c1c(CSC(=N)N)n(C)c2cc(C3CCCc4ccccc43)ccc12 (stereo not shown) [SYY-C055]	10 to 100 µM
10000 to 100000 nM	CCOC(=O)c1c(CSC(=N)N)n(C)c2cc(C3CCC(F)(F)CC3)ccc12 [SYY-C056]	100 to 250 µM
< 1000 nM	CCOC(=O)c1c(CNC(=N)N)n(C)c2cc(C3CCCc4ccccc43)ccc12 (stereo not shown) [SYY-C057]	10 to 100 µM
10000 to 100000 nM	CCOC(=O)c1c(CSC(=N)N)n(C)c2cc(OC3CCCC3)ccc12 [SYY-C058]	100 to 250 µM
< 1000 nM	CCOC(=O)c1c(CSC(=N)N)n(C)c2cc(Oc3ccccc3)ccc12 [SYY-C059]	10 to 100 µM
< 1000 nM	CCOC(=O)c1c(CNC(=N)N)n(C)c2cc(C3CCC(F)(F)CC3)ccc12 [SYY-C060]	10 to 100 µM
10000 to 100000 nM	CCOC(=O)c1c(CSC(=N)N)n(C)c2cc(OC3CCCCC3)ccc12 [SYY-C061]	10 to 100 µM
	CCOC(=O)c1c(CNC(=N)N)n(C)c2cc(C3CC4CCC3C4)ccc12 (stereo not shown) [SYY-C069]	10 to 100 µM

Structure (SMILES)	Kd [1]	minimal effective concentration [2]
CCOC(=O)c1c(CNC(=N)N)n(C)c2cc(-c3cccc4ccc(F)cc34)ccc12 [SYY-C094]	< 1000 nM	
